The supplement of paper PMC10307832

Key:
Assay in all cases: relative viability (nuclei count vs DMSO), 5 days (fraction); higher = more cells survive
[1] = compound: O=C(C[C@H]1NCCC[C@@H]1O)Cn1cnc2cc(Br)c(Cl)cc2c1=O (racemic) [Halofuginone] + O=C(c1cc(Cc2n[nH]c(=O)c3ccccc23)ccc1F)N1CCN(C(=O)C2CC2)CC1 [Olaparib] (partner 8 µM)
In short: (§1)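 Lung cancer cell lines, seeded in 1536-well plates, were treated the following day by pin tool with a single drug or with five library-drug doses (not always all listed) in √10 steps on top of a fixed anchor-drug dose. Cells were fixed and nuclei stained in one step after 5 days, and nuclei were counted. Relative viability is the nuclei count for treated wells divided by that for vehicle wells, reported as medians of duplicate plates.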

[2] = compound: O=C(C[C@H]1NCCC[C@@H]1O)Cn1cnc2cc(Br)c(Cl)cc2c1=O (racemic) [Halofuginone] + C[C@]1(O)C[C@@H](c2nc(-c3ccc4ccc(-c5ccccc5)nc4c3)c3c(N)nccn32)C1 [Linsitinib] (partner 1 µM)
In short: as §1

[3] = compound: COc1cc2c(Oc3ccc4[nH]c(C)cc4c3F)ncnc2cc1OCCCN1CCCC1 [Cediranib] + CS(=O)(=O)N1CCN(Cc2cc3nc(-c4cccc5[nH]ncc45)nc(N4CCOCC4)c3s2)CC1 [Pictilisib] (partner 1 µM)
In short: as §1

[4] = compound: COc1cc2c(Oc3ccc4[nH]c(C)cc4c3F)ncnc2cc1OCCCN1CCCC1 [Cediranib] + C[C@@H](Oc1cc(-c2cnn(C3CCNCC3)c2)cnc1N)c1c(Cl)ccc(F)c1Cl [Crizotinib] (partner 1 µM)
In short: as §1

| Cell Line | relative viability ([1]; first compound 0.001 µM) | relative viability ([1]; first compound 0.003162 µM) | relative viability ([1]; first compound 0.01 µM) | relative viability ([1]; first compound 0.03162 µM) | relative viability ([1]; first compound 0.1 µM) | relative viability ([2]; first compound 0.001 µM) | relative viability ([2]; first compound 0.003162 µM) | relative viability ([2]; first compound 0.01 µM) | relative viability ([2]; first compound 0.03162 µM) | relative viability ([2]; first compound 0.1 µM) | relative viability ([3]; first compound 0.04 µM) | relative viability ([3]; first compound 0.1265 µM) | relative viability ([3]; first compound 0.4 µM) | relative viability ([3]; first compound 1.265 µM) | relative viability ([3]; first compound 4 µM) | relative viability ([4]; first compound 0.04 µM) | relative viability ([4]; first compound 0.1265 µM) | relative viability ([4]; first compound 0.4 µM) | relative viability ([4]; first compound 1.265 µM) | relative viability ([4]; first compound 4 µM) |
| --- | --- | --- | --- | --- | --- | --- | --- | --- | --- | --- | --- | --- | --- | --- | --- | --- | --- | --- | --- | --- |
| NCI-H2023 | 0.509 | 0.565 | 0.405 | 0.239 | 0.0514 | 0.76 | 0.535 | 0.706 | 0.232 | 0.157 | 0.269 | 0.101 | 0.226 | 0.193 | 0.236 | 0.579 | 0.703 | 0.489 | 0.575 | 0.588 |
| EBC-1 | 0.752 | 0.706 | 0.532 | 0.303 | 0.169 | 0.959 | 1.07 | 0.784 | 0.656 | 0.251 | 0.417 | 0.516 | 0.402 | 0.407 | 0.467 | 0.17 | 0.213 | 0.21 | 0.201 | 0.172 |
| NCI-H1666 | 0.758 | 0.785 | 0.714 | 0.789 | 0.705 | 1.03 | 0.957 | 0.779 | 0.842 | 0.703 | 0.383 | 0.475 | 0.422 | 0.5 | 0.431 | 1.02 | 1.02 | 0.896 | 1.01 | 0.874 |
| NCI-H1975 | 0.875 | 0.868 | 0.721 | 0.429 | 0.14 | 1.09 | 0.924 | 0.976 | 0.497 | 0.15 | 0.316 | 0.466 | 0.275 | 0.239 | 0.29 | 1.16 | 1.05 | 0.92 | 1.02 | 0.913 |
| NCI-H2170 | 0.64 | 0.593 | 0.589 | 0.605 | 0.551 |  |  |  |  |  | 0.259 | 0.275 | 0.306 | 0.254 | 0.301 | 1.45 | 1.42 | 1.05 | 1.13 | 1.37 |
| NCI-H1355 | 0.785 | 0.805 | 0.611 | 0.754 | 0.7 | 0.825 | 0.819 | 0.832 | 0.822 | 0.61 | 0.392 | 0.273 | 0.41 | 0.263 | 0.476 | 1.1 | 0.977 | 1.08 | 0.992 | 1.31 |
| NCI-H1648 | 1.25 | 1.15 | 1.21 | 0.979 | 0.936 |  |  |  |  |  |  |  |  |  |  |  |  |  |  |  |
| A549 | 0.48 | 0.413 | 0.378 | 0.288 | 0.262 | 0.653 | 0.556 | 0.612 | 0.559 | 0.286 | 0.538 | 0.628 | 0.485 | 0.477 | 0.532 | 0.805 | 0.768 | 0.679 | 0.773 | 0.605 |
| SK-MES-1 | 0.768 | 0.69 | 0.713 | 0.345 | 0.174 | 1.14 | 1.05 | 1.01 | 0.812 | 0.552 | 0.349 | 0.441 | 0.284 | 0.391 | 0.383 | 1.06 | 1.05 | 0.915 | 0.963 | 1.06 |
| EKVX | 0.861 | 0.849 | 0.789 | 0.843 | 0.645 | 1.02 | 0.966 | 0.916 | 1.06 | 0.762 | 0.408 | 0.563 | 0.427 | 0.487 | 0.383 | 0.933 | 0.92 | 0.936 | 0.895 | 0.975 |
| RERF-LC-KJ | 1.19 | 0.983 | 0.884 | 0.959 | 0.632 | 0.972 | 0.932 | 0.843 | 0.891 | 0.967 | 0.526 | 0.573 | 0.516 | 0.461 | 0.431 | 0.875 | 0.893 | 0.799 | 0.782 | 0.752 |
| NCI-H1755 | 0.853 | 0.941 | 0.881 | 0.833 | 0.723 | 1.06 | 1.02 | 0.971 | 0.985 | 0.768 | 0.329 | 0.349 | 0.415 | 0.392 | 0.396 | 0.888 | 0.845 | 0.838 | 0.855 | 0.848 |
| NCI-H661 | 0.797 | 0.74 | 0.671 | 0.666 | 0.566 | 0.677 | 0.589 | 0.537 | 0.627 | 0.39 | 0.428 | 0.588 | 0.419 | 0.318 | 0.366 | 0.964 | 0.922 | 0.935 | 1.02 | 1.04 |
| LOU-NH91 | 0.958 | 0.93 | 0.853 | 0.925 | 0.81 | 0.97 | 0.977 | 0.97 | 0.977 | 0.842 | 0.534 | 0.473 | 0.494 | 0.479 | 0.495 | 0.739 | 0.767 | 0.713 | 0.727 | 0.653 |
| LXF-289 | 1.02 | 1.03 | 1.06 | 1.07 | 0.815 | 0.938 | 1.05 | 0.877 | 0.954 | 0.923 | 0.815 | 0.783 | 0.729 | 0.779 | 0.819 | 0.831 | 0.727 | 0.782 | 0.838 | 0.804 |
| HCC-44 | 0.97 | 1.03 | 0.987 | 0.962 | 0.942 | 0.67 | 0.678 | 0.594 | 0.682 | 0.341 | 0.589 |  | 0.552 | 0.669 | 0.714 | 0.803 |  | 0.774 | 0.825 | 0.935 |
| HARA | 1.16 | 0.885 | 0.572 | 0.664 | 0.345 | 1.02 | 0.981 | 0.79 | 1.02 | 0.828 | 0.269 | 0.684 | 0.393 | 0.481 | 0.37 | 1.07 | 1.15 | 0.991 | 1.02 | 1.03 |
